For experiment [1], the target named is T1, Aurora A kinase (Homo sapiens, UniProt O14965).
T1 sequence (O14965 1-403 T288D): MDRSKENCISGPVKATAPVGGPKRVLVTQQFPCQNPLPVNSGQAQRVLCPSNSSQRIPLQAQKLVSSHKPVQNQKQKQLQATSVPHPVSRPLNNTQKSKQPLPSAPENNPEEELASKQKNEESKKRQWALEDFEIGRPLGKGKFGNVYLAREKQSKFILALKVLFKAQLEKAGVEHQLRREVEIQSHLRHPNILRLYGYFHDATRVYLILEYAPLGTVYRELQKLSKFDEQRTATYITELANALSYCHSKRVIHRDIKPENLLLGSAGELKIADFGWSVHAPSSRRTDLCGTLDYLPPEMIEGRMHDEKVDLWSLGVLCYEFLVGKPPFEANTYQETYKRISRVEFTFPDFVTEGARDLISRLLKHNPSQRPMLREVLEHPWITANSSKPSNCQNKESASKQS
Nature of the experiment: IC50 determination for inhibitors of Aurora A (ELISA-type kinase assay, GST-Histone H3 substrate). Type of experiment: biochemical. The settings on record: mutant Aurora A kinase, 30 μM ATP, 40 minutes, read-out: IC50 Aurora A kinase inhibition. On the procedure: Aurora A is a serine threonine kinase involved in spindle assembly and chromosome segregation.
The assay is a typically ELISA-type assay where substrate (GST-Histone H3) is coupled to the assay-plate and is phosphorylated by the kinase. Phosphorylation is detected by a mouse anti-Phosphopeptid mAb and an HRP-labeled anti-mouse pAb. The assay is validated for IC50-determination.
Kinase activities were measured by Enzyme-Linked Immunosorbent Assay (ELISA): Maxisorp 384-well plates (Nunc) were coated with recombinant fusion protein comprising residues 1-15 of HistoneH3 fused to the N-terminus of Glutathione-S-Transferase. Plates were then blocked with a solution of 1 mg/mL I-block (Tropix cat# T2015—highly purified form of casein) in phosphate-buffered saline. Kinase reactions were carried out in the wells of the ELISA plate by combining an appropriate amount of mutant Aurora A kinase with test compound and 30 μM ATP. The reaction buffer was 10× Kinase Buffer (Cell Signaling cat #9802) supplemented with 1 μg/mL I-block. Reactions were stopped after 40 minutes by addition of 25 mM EDTA. After washing, substrate phosphorylation was detected by addition of anti-phospho-Histone H3 (Ser 10) 6G3 mAb (Cell Signaling cat #9706) and sheep anti-mouse pAb-HRP (Amersham cat# NA931V), followed by colorimetric development with TMB (3,3′,5,5′-tetramethylbenzidine from Kirkegaard & Perry Laboratories). After readout of the absorbance, IC50 values were calculated using a non-linear curve fit (XLfit software (ID Business Solution Ltd., Guilford, Surrey, UK)).
Background: ELISA stands for enzyme-linked immunosorbent assay.

Experiment [2] deals with HCT 116 cells. The experiment is described as follows: CellTiter-Glo assay in HCT 116 cells (cell viability). Type of experiment: cell-based. The settings on record: 120 h; HCT 116 human colon carcinoma cells, 5 days incubation, CellTiter-Glo luminescence. On the procedure:
The CellTiter-Glo™ Luminescent Cell Viability Assay (Promega) is a homogeneous method of determining the number of viable cells in culture based on quantitation of the ATP present, which signals the presence of metabolically active cells.
HCT 116 cells (human colon carcinoma, ATCC-No. CCl-247) were cultivated in RPMI 1640 medium with GlutaMAX™ I (Invitrogen, Cat-No. 61870-010), 2,5% Fetal Calf Serum (FCS, Sigma Cat-No. F4135 (FBS)); 100 Units/ml penicillin/100 μg/ml streptomycin (=Pen/Strep from Invitrogen Cat. No. 15140). For the assay the cells were seeded in 384 well plates, 1000 cells per well, in the same medium. The next day the test compounds were added in various concentrations ranging from 30 μM to 0.0015 μM (10 concentrations, 1:3 diluted). After 5 days the CellTiter-Glo™ assay was done according to the instructions of the manufacturer (CellTiter-Glo™ Luminescent Cell Viability Assay, from Promega). In brief: the cell-plate was equilibrated to room temperature for approximately 30 minutes and than the CellTiter-Glo™ reagent was added. The contents were carefully mixed for 15 minutes to induce cell lysis. After 45 minutes the luminescent signal was measured in Victor 2, (scanning multiwell spectrophotometer, Wallac).
1st. Day: • Medium: RPMI 1640 with GlutaMAX™ I (Invitrogen, Cat-Nr. 61870), 5% FCS (Sigma Cat.-No. F4135), Pen/Strep (Invitrogen, Cat No. 15140). • HCT116 (ATCC-No. CCl-247): 1000 cells in 60 μl per well of 384 well plate (Greiner 781098, μClear-plate white) • After seeding incubate plates 24 h at 37° C., 5% CO2 2nd. Day: Induction (Treatment with Compounds, 10 Concentrations):
In order to achieve a final concentration of 30 μM as highest concentration 3.5 μl of 10 mM compound stock solution were added directly to 163 μl media. Then step e) of the dilution procedure described below, was followed.
In order to achieve the second highest to the lowest concentrations, a serial dilution with dilution steps of 1:3 was followed according to the procedure (a-e) as described here below: • a) for the second highest concentration add 10 μl of 10 mM stock solution of compound to 20 μl dimethylsulfoxide (DMSO) • b) dilute 8×1:3 (always 10 μl to 20 μl DMSO) in this DMSO dilution row (results in 9 wells with concentrations from 3333.3 μM to 0.51 μM) • c) dilute each concentration 1:47.6 (3.5 μl compound dilution to 163 μl media) • e) add 10 μl of every concentration to 60 μl media in the cell plate resulting in final concentration of DMSO: 0.3% in every well and resulting in 10 final concentration of compounds ranging from 30 μM to 0.0015 μM. • Each compound is tested in triplicate. • Incubate 120 h (5 days) at 37° C., 5% CO2
• Add 30 μl CellTiter-Glo™ Reagent (prepared from CellTiter-Glo™ Buffer and CellTiter-Glo™ Substrate (lyophilized) purchased from Promega) per well, • shake 15 minutes at room temperature • incubate further 45 minutes at room temperature without shaking
• Victor 2 scanning multiwell spectrophotometer (Wallac), Luminescence mode (0.5 sec/read, 477 nm) • Determine IC50 using a non-linear curve fit (XLfit software (ID Business Solution Ltd., Guilford, Surrey, UK))
In general terms: Cellular ATP, detected with luciferase, serves as a proxy for viable cell number.

Each structure is given as a SMILES string.

Regarding `CCN1C(=O)C(C)(C)c2cc3nc(-c4n[nH]c5ccc(-c6nc[nH]n6)cc45)[nH]c3cc21` [Example 1, 5-Ethyl-7,7-dimethyl-2-[5-(1H-[1,2,4]triazol-3-yl)-1H-indazol-3-yl]-5,7-dihydro-3H-imidazo[4,5-f]indol-6-one], the half-inhibitory concentration (IC50) – broadly, the concentration at which inhibition is half-maximal – in experiment [1] is 2 nM; in experiment [2], 25 to 1500 nM.

`CCN1C(=O)C(C)(C)c2cc3nc(-c4n[nH]c5cc(-c6ccsc6)ccc45)[nH]c3cc21` [Example 4, 5-Ethyl-7,7-dimethyl-2-(6-thiophen-3-yl-1H-indazol-3-yl)-5,7-dihydro-3H-imidazo[4,5-f]indol-6-one]: the IC50 was 22 nM in experiment [1] and 25 to 1500 nM in experiment [2]. Turning to `CCN1C(=O)C(C)(C)c2cc3nc(-c4n[nH]c5cc(/C=C/c6ccc(F)cc6)ccc45)[nH]c3cc21` [Example 6, 5-Ethyl-2-{6-[(E)-2-(4-fluoro-phenyl)-vinyl]-1H-indazol-3-yl}-7,7-dimethyl-5,7-dihydro-3H-imidazo[4,5-f]indol-6-one], the IC50 is 35 nM in experiment [1] and 25 to 1500 nM in experiment [2]. With `CCN1C(=O)C(C)(C)c2cc3nc(-c4n[nH]c5cc(/C=C/c6ccc(C(F)(F)F)cc6)ccc45)[nH]c3cc21` [Example 11, 5-Ethyl-7,7-dimethyl-2-{6-[(E)-2-(4-trifluoromethyl-phenyl)-vinyl]-1H-indazol-3-yl}-5,7-dihydro-3H-imidazo[4,5-f]indol-6-one], the half-inhibitory concentration (IC50) in experiment [1] worked out at 19 nM. Regarding `CCN1C(=O)C(C)(C)c2cc3nc(-c4n[nH]c5cc(/C=C/C6CCCCC6)ccc45)[nH]c3cc21` [Example 19, 2-[6-((E)-2-Cyclohexyl-vinyl)-1H-indazol-3-yl]-5-ethyl-7,7-dimethyl-5,7-dihydro-3H-imidazo[4,5-f]indol-6-one], the half-maximal inhibitory concentration (IC50) in experiment [1] is 58 nM; in experiment [2], 25 to 1500 nM. As to `CCN1C(=O)C(C)(C)c2cc3nc(-c4n[nH]c5ccc(-c6cccc(N(C)C)c6)cc45)[nH]c3cc21` [Example 29, 2-[5-(3-Dimethylamino-phenyl)-1H-indazol-3-yl]-5-ethyl-7,7-dimethyl-5,7-dihydro-3H-imidazo[4,5-f]indol-6-one], the figures for the IC50 in experiment [1] and in experiment [2] were 6 nM and 25 to 1500 nM, respectively. As to `CCN1C(=O)C(C)(C)c2cc3nc(-c4n[nH]c5cc(C#Cc6ccccc6)ccc45)[nH]c3cc21` [Example 38, 5-Ethyl-7,7-dimethyl-2-(6-phenylethynyl-1H-indazol-3-yl)-5,7-dihydro-3H-imidazo[4,5-f]indol-6-one], the results for the IC50 in experiment [1] and in experiment [2] were 9 nM and 25 to 1500 nM, respectively.

The values are drawn from patent US20090291968A1, “SUBSTITUTED INDAZOLE DERIVATIVES, THEIR MANUFACTURE AND USE AS PHARMACEUTICAL AGENTS” (priority 2006, published 2009).
